Measured values taken from US8227422B2, “Peptides and compounds that bind to a receptor” (Glaxosmithkline LLC, priority 1996, dated 2012).
Read-outs that look alike come from different tables or passages of the source. Where a SMILES comes first, the peptide text is derived from it.

What was measured:
[1] = target: T1, human TPO-R (transfected Ba/F3 cells) (Homo sapiens, UniProt P40238); experiment: Thrombopoietin dependent cell proliferation assay (MTT), TPO-R transfected Ba/F3 cells; assay type: cell-based
T1 construct: Murine IL-3 dependent Ba/F3 cells were transfected with full length human TPO-R; expressed in transfected cells; host or cells: murine Ba/F3 cells
T1 sequence (P40238 26-635): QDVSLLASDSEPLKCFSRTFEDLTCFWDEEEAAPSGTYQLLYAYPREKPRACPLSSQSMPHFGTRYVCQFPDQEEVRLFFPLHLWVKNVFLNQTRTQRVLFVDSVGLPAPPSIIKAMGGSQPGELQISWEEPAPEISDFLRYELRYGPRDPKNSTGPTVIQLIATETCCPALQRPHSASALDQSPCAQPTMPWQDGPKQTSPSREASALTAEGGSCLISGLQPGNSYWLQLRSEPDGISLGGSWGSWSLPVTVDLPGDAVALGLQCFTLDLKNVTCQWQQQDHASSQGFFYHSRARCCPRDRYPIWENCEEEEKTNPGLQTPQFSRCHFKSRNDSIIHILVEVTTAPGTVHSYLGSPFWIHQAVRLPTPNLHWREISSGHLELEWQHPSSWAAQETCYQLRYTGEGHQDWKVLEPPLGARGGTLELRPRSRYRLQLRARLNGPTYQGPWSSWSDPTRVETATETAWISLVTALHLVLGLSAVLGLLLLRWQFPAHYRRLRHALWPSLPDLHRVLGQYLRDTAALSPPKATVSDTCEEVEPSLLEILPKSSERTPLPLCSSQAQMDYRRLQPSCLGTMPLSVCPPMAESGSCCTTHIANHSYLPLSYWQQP

TPO-R = target: T2, TPO-R (Homo sapiens, UniProt P40238); experiment: Competition binding assay (equilibrium binding ELISA, MBP-TPO156 tracer) on immobilized TPO-R
T2 construct: made in house
T2 sequence (P40238 26-491 limits assumed): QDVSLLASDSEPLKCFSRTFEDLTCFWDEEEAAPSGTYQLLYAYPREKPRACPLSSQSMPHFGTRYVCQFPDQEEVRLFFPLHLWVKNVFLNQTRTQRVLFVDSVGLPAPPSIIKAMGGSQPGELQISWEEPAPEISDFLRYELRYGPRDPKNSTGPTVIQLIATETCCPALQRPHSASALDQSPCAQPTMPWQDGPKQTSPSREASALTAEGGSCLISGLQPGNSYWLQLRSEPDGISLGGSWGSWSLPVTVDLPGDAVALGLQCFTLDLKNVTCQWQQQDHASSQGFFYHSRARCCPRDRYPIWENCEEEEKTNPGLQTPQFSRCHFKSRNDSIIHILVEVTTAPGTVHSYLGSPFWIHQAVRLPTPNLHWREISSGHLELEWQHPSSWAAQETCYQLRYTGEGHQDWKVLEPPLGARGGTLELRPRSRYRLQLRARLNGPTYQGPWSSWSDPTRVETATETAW
Description: A variety of methods can be used to evaluate IC50 values. For example, an equilibrium binding ELISA assay, using either MBP-TPO or lacI-peptide tracer, was used to determine whether the peptides inhibit the binding of TPO to the extracellular domain of the TPO receptor. Typically, the IC50 value were determined using the free peptide. The IC50 value can be determined using the free peptide, which optionally can be C-terminally amidated, or can be prepared as an ester or other carboxy amide.
Binding affinities of chemically synthesized peptides for TPO-R were measured in a competition binding assay. The wells of a microtiter plate were coated with 1 mg streptavidin, blocked with PBS/1% BSA, followed by 50 ng of biotinylated anti-receptor immobilizing antibody (Ab179). The wells were then treated with a 1:10 dilution of soluble TPO-R harvest. Various concentrations of peptide or peptide mimetic were mixed with a constant amount of a truncated form of TPO consisting of residues 1-156 fused to the C-terminus of maltose binding protein (MBP-TPO156). The peptide MBP-TPO156 mixtures were added to the TPO-R coated wells, incubated for 2 hours at 4° C. and then washed with PBS. The amount of MBP-TPO156 that was bound at equilibrium was measured by adding a rabbit anti-sera directed against MBP, followed by alkaline phosphatase conjugated goat anti-rabbit IgG. The amount of alkaline phosphatase in each well was then determined using standard methods.
The assay is conducted over a range of peptide concentrations and the results are graphed such that the y axis represents the amount of bound MBP-TPO156 and the x axis represents the concentration of peptide or peptide mimetic.

[2] = Table 5, substitutions in cyclized compound, read-out: EC50 (nM) Cell Prolif.

IC50 (TPO-R; Table 5, read-out: IC50) [nM]	EC50 [1, 2] [nM]	SMILES	other results
≤ 500	< 500	CC[C@H](C)[C@@H]1NC(=O)[C@H](Cc2c[nH]c3ccccc23)NC(=O)[C@H](CCC(=O)O)NC(=O)[C@H](CCCNC(=N)N)NC(=O)[C@H](CC(C)C)NC(=O)[C@H]([C@@H](C)O)NC(=O)[C@@H]2CCCN2C(=O)CNC(=O)[C@H](CC(=O)O)NC(=O)[C@H](C)NC(=O)[C@@H](N)CSSC[C@@H](C(N)=O)NC(=O)[C@H](Cc2cccnc2)NC(=O)[C@H](CO)NC1=O [F-(Pyridylala)] (HELM PEPTIDE1{C.A.D.G.P.T.L.R.E.W.I.S.[O=C([C@H](Cc1cccnc1)N[*:1])[*:2]].C.[am]}$PEPTIDE1,PEPTIDE1,1:R3-14:R3$$$V2.0; N-terminus and C-terminus assumed)	–
≤ 500	< 200000	CC[C@H](C)[C@@H]1NC(=O)[C@H](Cc2c[nH]c3ccccc23)NC(=O)[C@H](CCC(=O)O)NC(=O)[C@H](CCCNC(=N)N)NC(=O)[C@H](CC(C)C)NC(=O)[C@H]([C@@H](C)O)NC(=O)[C@@H]2CCCN2C(=O)CNC(=O)[C@H](CC(=O)O)NC(=O)[C@H](C)NC(=O)[C@@H](N)CSSC[C@@H](C(N)=O)NC(=O)CCCCNC1=O [S,F-Ava] (HELM PEPTIDE1{C.A.D.G.P.T.L.R.E.W.I.[O=C(CCCCN[*:1])[*:2]].C.[am]}$PEPTIDE1,PEPTIDE1,1:R3-13:R3$$$V2.0; N-terminus and C-terminus assumed)	–
≤ 200000	< 200000	CC[C@H](C)[C@@H]1NC(=O)[C@H](Cc2c[nH]c3ccccc23)NC(=O)[C@H](CCC(=O)O)NC(=O)[C@H](CCCNC(=N)N)NC(=O)[C@H](CC(C)C)NC(=O)[C@H]([C@@H](C)O)NC(=O)[C@@H]2CCCN2C(=O)CNC(=O)[C@H](CC(=O)O)NC(=O)[C@H](C)NC(=O)[C@@H](N)CSSC[C@@H](C(N)=O)NC(=O)[C@H](Cc2ccccc2)NC(=O)[C@H](C)N(C)C1=O [S-(N-Me-Ala)] (HELM PEPTIDE1{C.A.D.G.P.T.L.R.E.W.I.[meA].F.C.[am]}$PEPTIDE1,PEPTIDE1,1:R3-14:R3$$$V2.0; N-terminus and C-terminus assumed)	–
≤ 500	< 500	CC[C@@H]1NC(=O)[C@H]([C@@H](C)CC)NC(=O)[C@H](Cc2c[nH]c3ccccc23)NC(=O)[C@H](CCC(=O)O)NC(=O)[C@H](CCCNC(=N)N)NC(=O)[C@H](CC(C)C)NC(=O)[C@H]([C@@H](C)O)NC(=O)[C@@H]2CCCN2C(=O)CNC(=O)[C@H](CC(=O)O)NC(=O)[C@H](C)NC(=O)[C@@H](N)CSSC[C@@H](C(N)=O)NC(=O)[C@H](Cc2ccccc2)NC1=O [S-Abu] (HELM PEPTIDE1{C.A.D.G.P.T.L.R.E.W.I.[Abu].F.C.[am]}$PEPTIDE1,PEPTIDE1,1:R3-14:R3$$$V2.0; N-terminus and C-terminus assumed)	EC50 ([1]; Table 6, read-out: EC50 (nM) Cell Prolif.): < 500 nM

Second part, the molecule before the results:

SMILES	IC50 (TPO-R; Table 5, read-out: IC50) [nM]	EC50 [1, 2] [nM]	other results
CC[C@H](C)[C@H](NC(C)=O)C(=O)N[C@@H](CCC(=O)O)C(=O)NCC(=O)N1CCC[C@H]1C(=O)N[C@H](C(=O)N[C@@H](CC(C)C)C(=O)N[C@@H](CCCNC(=N)N)C(=O)N[C@@H](CCC(N)=O)C(=O)N[C@@H](Cc1c[nH]c2ccccc12)C(=O)N[C@@H](CC(C)C)C(=O)N[C@@H](C)C(=O)N[C@@H](C)C(=O)N[C@@H](CCCNC(=N)N)C(=O)N[C@@H](C)C(=O)NCCCC[C@H](NC(=O)CCNC(=O)[C@H](C)NC(=O)[C@H](CCCNC(=N)N)NC(=O)[C@H](C)NC(=O)[C@H](C)NC(=O)[C@H](CC(C)C)NC(=O)[C@H](Cc1c[nH]c2ccccc12)NC(=O)[C@H](CCC(N)=O)NC(=O)[C@H](CCCNC(=N)N)NC(=O)[C@H](CC(C)C)NC(=O)[C@@H](NC(=O)[C@@H]1CCCN1C(=O)CNC(=O)[C@H](CCC(=O)O)NC(=O)[C@@H](NC(C)=O)[C@@H](C)CC)[C@@H](C)O)C(N)=O)[C@@H](C)O	–	–	EC50 ([1]; Table 10, truncations of the dimer, read-out: EC50 (nM) Cell Prolif.): < 500 nM
CC[C@H](C)[C@@H]1NC(=O)[C@@H](N)CSSC[C@@H](C(N)=O)NC(=O)[C@H](C)NC(=O)[C@H](CCCNC(=N)N)NC(=O)[C@H](C)NC(=O)[C@H](C)NC(=O)[C@H](CC(C)C)NC(=O)[C@H](Cc2c[nH]c3ccccc23)NC(=O)[C@H](CCC(N)=O)NC(=O)[C@H](CCCNC(=N)N)NC(=O)[C@H](CC(C)C)NC(=O)[C@H]([C@@H](C)O)NC(=O)[C@@H]2CCCN2C(=O)CNC(=O)[C@H](CCC(=O)O)NC1=O (HELM PEPTIDE1{C.I.E.G.P.T.L.R.Q.W.L.A.A.R.A.C.[am]}$PEPTIDE1,PEPTIDE1,1:R3-16:R3$$$V2.0)	–	–	IC50 (TPO-R; Table 9, read-out: IC50): ≤ 500 nM
CC(C)C[C@H](NC(=O)[C@@H](NC(=O)[C@@H]1CCCN1C(=O)CNC(=O)[C@@H](NC(=O)[C@@H](N)Cc1c[nH]cn1)C(C)C)[C@@H](C)O)C(=O)N[C@@H](CCCNC(=N)N)C(=O)N[C@@H](CO)C(=O)NCC(=O)N[C@@H](CSSC[C@H](NC(=O)CNC(=O)[C@H](CO)NC(=O)[C@H](CCCNC(=N)N)NC(=O)[C@H](CC(C)C)NC(=O)[C@@H](NC(=O)[C@@H]1CCCN1C(=O)CNC(=O)[C@@H](NC(=O)[C@@H](N)Cc1c[nH]cn1)C(C)C)[C@@H](C)O)C(N)=O)C(N)=O (HELM PEPTIDE1{H.V.G.P.T.L.R.S.G.C.[am]}|PEPTIDE2{H.V.G.P.T.L.R.S.G.C.[am]}$PEPTIDE1,PEPTIDE2,10:R3-10:R3$$$V2.0)	–	–	IC50 (TPO-R; Table 7, dimer compounds, read-out: IC50): ≤ 200000 nM; EC50 ([1]; Table 7, dimer compounds, read-out: EC50 (nM) Prolif.): < 200000 nM
CC[C@H](C)[C@@H]1NC(=O)[C@H](Cc2c[nH]c3ccccc23)NC(=O)[C@H](CCC(=O)O)NC(=O)[C@H](CCCNC(=N)N)NC(=O)[C@H](CC(C)C)NC(=O)[C@H]([C@@H](C)O)NC(=O)[C@@H]2CCCN2C(=O)CNC(=O)[C@H](CC(=O)O)NC(=O)[C@H](C)NC(=O)[C@@H](NC(=O)CNC(=O)CN)CSSC[C@@H](C(=O)NCC(=O)NCC(=O)O)NC(=O)[C@H](Cc2ccccc2)NC(=O)[C@H](CO)NC1=O [G G C A D G P T L R E W I S F C G G] (HELM PEPTIDE1{G.G.C.A.D.G.P.T.L.R.E.W.I.S.F.C.G.G}$PEPTIDE1,PEPTIDE1,3:R3-16:R3$$$V2.0; N-terminus and C-terminus assumed; bridges inferred)	–	–	IC50 (TPO-R; Table 3, read-out: Affinity (IC50)): ≤ 500 nM
CC(C)C[C@@H]1NC(=O)[C@H](Cc2c[nH]c3ccccc23)NC(=O)[C@H](CCC(=O)O)NC(=O)[C@H](CCCNC(=N)N)NC(=O)[C@H](CC(C)C)NC(=O)[C@H]([C@@H](C)O)NC(=O)[C@@H](NC(=O)CNC(=O)CN)CSSC[C@@H](C(=O)NCC(=O)NCC(=O)O)NC(=O)[C@H](Cc2ccccc2)NC(=O)CNC(=O)CNC(=O)[C@H](Cc2c[nH]cn2)NC1=O [G G C T L R E W L H G G F C G G] (HELM PEPTIDE1{G.G.C.T.L.R.E.W.L.H.G.G.F.C.G.G}$PEPTIDE1,PEPTIDE1,3:R3-14:R3$$$V2.0; N-terminus and C-terminus assumed; bridges inferred)	–	–	IC50 (TPO-R; read-out: IC50 value): ≤ 500 nM
CC[C@H](C)[C@@H]1NC(=O)[C@H](Cc2c[nH]c3ccccc23)NC(=O)[C@H](CCC(=O)O)NC(=O)[C@H](CCCNC(=N)N)NC(=O)[C@H](CC(C)C)NC(=O)[C@H]([C@@H](C)O)NC(=O)[C@@H]2CCCN2C(=O)CNC(=O)[C@H](CC(=O)O)NC(=O)[C@H](C)NC(=O)CSC[C@@H](C(N)=O)NC(=O)CCCCNC1=O [S,F-Ava(thioether)] (HELM PEPTIDE1{[O=C(C[*:3])[*:2]].A.D.G.P.T.L.R.E.W.I.[O=C(CCCCN[*:1])[*:2]].C.[am]}$PEPTIDE1,PEPTIDE1,1:R3-13:R3$$$V2.0; N-terminus and C-terminus assumed)	≤ 500	< 200000	–
